The text below walks through data of patent US10766869B2, “Triazoles for the treatment of demyelinating dieases” (Vertex Pharmaceuticals Incorporated, priority 2015, dated 2020).

In this experiment the test system is primary rat mixed cortical cells. Description: In vitro myelination assay (MBP positive myelin strands, fold myelin pixels above background). Format: cell-based. The following applies: Rattus norvegicus; for fold induction at 1 µM: 1.0 μM compound; for fold induction at 10 µM: 10.0 μM compound. The essentials: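 P1 rat mixed cortical cultures (neurons, OPCs, oligodendrocytes, astrocytes, microglia) grown 14 days at 37 °C with compound, half-medium refreshed with compound on days 6 and 10. Fixed cells stained for MBP; MBP-positive myelin strand pixels per well quantified by automated imaging, reported as fold over no-compound baseline at 1.0 and 10.0 μM.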

Where [1] appears, read: read-out: Fold myelin pixels above background relative to baseline of no added compound.
Setting [2] is: relative to baseline of no added compound, read-out: Fold myelin pixels above background.
[3] abbreviates: relative to baseline of no added compound, read-out: Fold myelin pixels above background, 1.0 μM.
Setting [4] is: relative to baseline of no added compound, read-out: Fold myelin pixels above background, 10.0 μM.

Where two headings read alike, the source gives them in different places.

On to `Cc1cc(Nc2ncn(-c3cccnc3)n2)c(F)c(N2CCN(C3COC3)CC2)c1` [Compound 1022, N-[2-fluoro-5-methyl-3-[4-(oxetan-3-yl)piperazin-1-yl]phenyl]-1-(3-pyridyl)-1,2,4-triazol-3-amine], for which, under setting [1], the fold induction at 1 µM was 1 to 10 and the fold induction at 10 µM lay within 10 to 100.
On to `Cc1cc(Nc2ncn(-c3ccnc(F)c3)n2)nc(N2CC(N3CCOCC3)C2)c1` [Compound 504, N-[1-(2-fluoro-4-pyridyl)-1,2,4-triazol-3-yl]-4-methyl-6-(3-morpholinoazetidin-1-yl)pyridin-2-amine], for which, under setting [2], the fold induction at 1 µM was 10 to 100 and the fold induction at 10 µM fell in the range of 10 to 100.
As to `Cc1cc(Nc2ncn(-c3cc(F)cc(F)c3)n2)cc(C2(O)CCN(C3COC3)CC2)c1` [Compound 516, 4-[3-[[1-(3,5-difluorophenyl)-1,2,4-triazol-3-yl]amino]-5-methyl-phenyl]-1-(oxetan-3-yl)piperidin-4-ol], under setting [2], the fold induction at 1 µM fell in the range of 10 to 100 and the fold induction at 10 µM was in the range of 10 to 100.
On to `COc1ccc(-n2cnc(Nc3cc(C)cc(N4CCN(C5COC5)CC4)c3)n2)cc1F` [Compound 624, 1-(3-fluoro-4-methoxy-phenyl)-N-[3-methyl-5-[4-(oxetan-3-yl)piperazin-1-yl]phenyl]-1,2,4-triazol-3-amine], for which, under setting [2], the fold induction at 1 µM lay within 10 to 100 and the fold induction at 10 µM was at most 1.
`Cc1cc(Nc2ncn(-c3cc(F)cc(F)c3)n2)cc(N2CCN(C3CCCCC3O)CC2)c1` (centres unmarked) [Compound 878, 2-[4-[3-[[1-(3,5-difluorophenyl)-1,2,4-triazol-3-yl]amino]-5-methyl-phenyl]piperazin-1-yl]cyclohexanol]: under setting [1], the fold induction at 1 µM lay in the range of 10 to 100 and the fold induction at 10 µM was at most 1.
On to `Fc1cc(Nc2ncn(-c3ccccc3)n2)cc(N2CCCC2)c1` [Compound 336, N-(3-fluoro-5-pyrrolidin-1-yl-phenyl)-1-phenyl-1,2,4-triazol-3-amine], for which the fold induction at 1 µM under setting [3] lay within 1 to 10. Further, the fold induction at 10 µM under setting [4] was at most 1.
The like results for `CS(=O)(=O)c1cc(Nc2ncn(-c3cccc(F)c3)n2)cc(N2CCN(C3COC3)CC2)c1` [Compound 361, 1-(3-fluorophenyl)-N-[3-methylsulfonyl-5-[4-(oxetan-3-yl)piperazin-1-yl]phenyl]-1,2,4-triazol-3-amine] were, in that order, 100 to 1000 and at most 1.
As to `Cc1cc(Nc2ncn(-c3cc(F)cc(F)c3)n2)cc(OCC2(C)COC2)c1` [Compound 677, 1-(3,5-difluorophenyl)-N-[3-methyl-5-[(3-methyloxetan-3-yl)methoxy]phenyl]-1,2,4-triazol-3-amine], under setting [2], the fold induction at 1 µM was in the range of 100 to 1000 and the fold induction at 10 µM is at most 1.
As to `Fc1cc(F)cc(-n2cnc(Nc3cc(C(F)(F)F)cc(N4CCN([C@H]5CCOC5)CC4)n3)n2)c1` (single isomer, unassigned) [Compound 787], under setting [1], the fold induction at 1 µM was in the range of 1 to 10 and the fold induction at 10 µM lay within 10 to 100.
`Cc1cc(Nc2ncn(-c3ccccc3)n2)cc(N2CCN(C(C)C)CC2)c1` [Compound 326, N-[3-(4-isopropylpiperazin-1-yl)-5-methyl-phenyl]-1-phenyl-1,2,4-triazol-3-amine]: the fold induction at 1 µM under setting [3] lay in the range of 1000 to 10000. Also, the fold induction at 10 µM under setting [4] was at most 1.
As for `CCCc1cc(Nc2ncn(-c3cnccn3)n2)cc(N2CCN(C3COC3)CC2)c1` [Compound 236, N-[3-[4-(oxetan-3-yl)piperazin-1-yl]-5-propyl-phenyl]-1-pyrazin-2-yl-1,2,4-triazol-3-amine], the fold induction at 1 µM under setting [3] is at most 1. Besides, under setting [4], the fold induction at 10 µM is at most 1.
Take `CC(=O)OCC(C)(CO)N1CCN(c2cc(C)cc(Nc3ncn(-c4cc(F)cc(F)c4)n3)c2)CC1` (centres unmarked) [Compound 534, [2-[4-[3-[[1-(3,5-difluorophenyl)-1,2,4-triazol-3-yl]amino]-5-methyl-phenyl]piperazin-1-yl]-3-hydroxy-2-methyl-propyl] acetate]: under setting [2], the fold induction at 1 µM fell in the range of 1 to 10 and the fold induction at 10 µM is at most 1.
Regarding `Fc1cc(Nc2ncn(-c3cc(F)cc(F)c3)n2)cc(NC2COC2)c1` [Compound 686, N3-[1-(3,5-difluorophenyl)-1,2,4-triazol-3-yl]-5-fluoro-N1-(oxetan-3-yl)benzene-1,3-diamine], under setting [2], the fold induction at 1 µM is 1 to 10 and the fold induction at 10 µM was in the range of 1 to 10.
Consider `Clc1cc(Nc2ncn(-c3ccncn3)n2)cc(N2CC(N3CCOCC3)C2)c1` [Compound 863, N-[3-chloro-5-(3-morpholinoazetidin-1-yl)phenyl]-1-pyrimidin-4-yl-1,2,4-triazol-3-amine], for which, under setting [1], the fold induction at 1 µM fell in the range of 10 to 100 and the fold induction at 10 µM was 10 to 100.
Take `Cc1cc(Nc2ncn(-c3ccc(C(F)(F)F)cc3)n2)cc(N2CCCC2)c1` [Compound 356, N-(3-methyl-5-pyrrolidin-1-yl-phenyl)-1-[4-(trifluoromethyl)phenyl]-1,2,4-triazol-3-amine]: under setting [3], the fold induction at 1 µM was at most 1. The fold induction at 10 µM under setting [4] lay in the range of 10 to 100.
As to `[2H]C1([2H])N(c2cc(C)cc(Nc3ncn(-c4cc(F)cc(F)c4)n3)c2)C([2H])([2H])C([2H])([2H])N(C2CCOC2)C1([2H])[2H]` (centres unmarked) [Compound 1042, 1-(3,5-difluorophenyl)-N-[3-methyl-5-(2,2,3,3,5,5,6,6-octadeuterio-4-tetrahydrofuran-3-yl-piperazin-1-yl)phenyl]-1,2,4-triazol-3-amine], under setting [1], the fold induction at 1 µM was in the range of 10 to 100 and the fold induction at 10 µM was at most 1.
Regarding `CCn1cnc(Nc2cc(C)cc(Nc3ncn(-c4ccccc4)n3)c2)n1` [Compound 604, N1-(1-ethyl-1,2,4-triazol-3-yl)-5-methyl-N3-(1-phenyl-1,2,4-triazol-3-yl)benzene-1,3-diamine], under setting [2], the fold induction at 1 µM was 10 to 100 and the fold induction at 10 µM is at most 1.
Turning to `Cc1cc(CN2CCN(C3COC3)CC2)cc(Nc2ncn(-c3ccc(F)c(F)c3)n2)c1` [Compound 840, 1-(3,4-difluorophenyl)-N-[3-methyl-5-[[4-(oxetan-3-yl)piperazin-1-yl]methyl]phenyl]-1,2,4-triazol-3-amine], under setting [1], the fold induction at 1 µM was in the range of 10 to 100 and the fold induction at 10 µM lay in the range of 10 to 100.
Regarding `COCc1cc(-n2cnc(Nc3cc(C4CC4)cc(N4CCN(C5COC5)CC4)c3)n2)ncn1` [Compound 353, N-[3-cyclopropyl-5-[4-(oxetan-3-yl)piperazin-1-yl]phenyl]-1-[6-(methoxymethyl)pyrimidin-4-yl]-1,2,4-triazol-3-amine], the fold induction at 1 µM under setting [3] was 1000 to 10000. The fold induction at 10 µM under setting [4] lay within 100 to 1000.
In the case of `Cc1cc(Nc2ncn(-c3cc(F)cc(F)c3)n2)cc(N2CC(C(=O)N3CCCC3)C2)c1` [Compound 773, [1-[3-[[1-(3,5-difluorophenyl)-1,2,4-triazol-3-yl]amino]-5-methyl-phenyl]azetidin-3-yl]-pyrrolidin-1-yl-methanone], under setting [2], the fold induction at 1 µM is 10 to 100 and the fold induction at 10 µM is at most 1.
With `Cc1cc(Nc2ncn(-c3cc(F)cc(F)c3)n2)cc(N2CCN(CC(O)CN(C)C)CC2)c1` (centres unmarked) [Compound 1078, 1-[4-[3-[[1-(3,5-difluorophenyl)-1,2,4-triazol-3-yl]amino]-5-methyl-phenyl]piperazin-1-yl]-3-(dimethylamino)propan-2-ol], under setting [1], the fold induction at 1 µM fell in the range of 1 to 10 and the fold induction at 10 µM was at most 1.
For the compound `Cc1cc(Nc2ncn(-c3ccccc3)n2)cc(N2CCNCC2)c1` [Compound 159, N-(3-methyl-5-piperazin-1-yl-phenyl)-1-phenyl-1,2,4-triazol-3-amine], the fold induction at 1 µM under setting [3] lay within 1000 to 10000. Moreover, the fold induction at 10 µM under setting [4] is at most 1.
For `Cc1cc(Nc2ncn(-c3ccccc3)n2)cc(N2CCN(CC3(C)COC3)CC2)c1` [Compound 431, N-[3-methyl-5-[4-[(3-methyloxetan-3-yl)methyl]piperazin-1-yl]phenyl]-1-phenyl-1,2,4-triazol-3-amine], under setting [2], the fold induction at 1 µM lay in the range of 1 to 10 and the fold induction at 10 µM was at most 1.
Regarding `Cc1cc(Nc2ncn(-c3cc(F)cc(F)c3)n2)nc(OCC2COC2)c1` [Compound 1069, N-[1-(3,5-difluorophenyl)-1,2,4-triazol-3-yl]-4-methyl-6-(oxetan-3-ylmethoxy)pyridin-2-amine], under setting [1], the fold induction at 1 µM was in the range of 1 to 10 and the fold induction at 10 µM was in the range of 1 to 10.
On to `COc1cccc(-n2cnc(Nc3cc(C)cc(N4CCN(C5COC5)CC4)c3)n2)c1` [Compound 86, 1-(3-methoxyphenyl)-N-[3-methyl-5-[4-(oxetan-3-yl)piperazin-1-yl]phenyl]-1,2,4-triazol-3-amine], for which, under setting [3], the fold induction at 1 µM lay within 100 to 1000. The fold induction at 10 µM under setting [4] is 100 to 1000.
For `COc1nccc(-n2cnc(Nc3cc(C)cc(N4CCN(C5COC5)CC4)c3)n2)n1` [Compound 30, 1-(2-methoxypyrimidin-4-yl)-N-[3-methyl-5-[4-(oxetan-3-yl)piperazin-1-yl]phenyl]-1,2,4-triazol-3-amine], under setting [3], the fold induction at 1 µM is at most 1. Moreover, the fold induction at 10 µM under setting [4] was 100 to 1000.
The like results for `Cc1cc(-n2cnc(Nc3cc(C4CC4)cc(N4CCN(C5COC5)CC4)c3)n2)nc(C)n1` [Compound 129, N-[3-cyclopropyl-5-[4-(oxetan-3-yl)piperazin-1-yl]phenyl]-1-(2,6-dimethylpyrimidin-4-yl)-1,2,4-triazol-3-amine] were, in that order, at most 1 and at most 1.
The like results for `FC(F)c1cc(Nc2ncn(-c3cccnc3)n2)cc(N2CCN(C3COC3)CC2)c1` [Compound 209, N-[3-(difluoromethyl)-5-[4-(oxetan-3-yl)piperazin-1-yl]phenyl]-1-(3-pyridyl)-1,2,4-triazol-3-amine] were, in that order, 100 to 1000 and 100 to 1000.
